Legend:
erythrocytes [1] = test: Distribution of total radioactivity (3H/14C) on erythrocytes and plasma after one-time oral administration (FIG. 1); type: in vivo; settings: 3H-labeled steroid skeleton
Source text: There are indications that in oral administration, both radicals R^1 and R^2, if they are different from a hydrogen atom, are cleaved off and are replaced by a hydrogen atom, so that in this case, not the group —SO2NR^1R^2, but rather the group —SO2NH2 is provided for the uptake into erythrocytes or binding to erythrocytes. […] The data also confirm that substances according to the invention are enriched in the erythrocyte compartment relative to the plasma.

[2] = molecular target: T1, carboanhydrase II (hCA II) (Homo sapiens, UniProt P00918); test: Affinity chromatography of erythrocyte lysate proteins on immobilized estradiol sulfamate derivative, eluate analysed by Western blot; type: binding; settings: ligand J1242 immobilized on E-AH-sepharose
T1 construct: proteins of erythrocyte-lysates were separated on the column; from tissue; host or cells: erythrocytes (lysate)
Source text: In FIG. 3, the chemical synthesis of a linkable estradiol sulfamate (J1242) is shown, which is described in S. Schwarz et al., Steroids 64 (1999) 460–471.
After the estradiol sulfamate derivative is immobilized in the column material (E-AH-sepharose), proteins of erythrocyte-lysates were separated on the column. The protein that is responsible for the binding of estradiol sulfamate in erythrocytes was adsorbed on the surface of the affinity chromatography column. After the protein remaining on the column was washed and eluted with an acetate buffer, the eluate was analyzed with use of the “Western Plot Technique” (see FIGS. 4 and 5).

[3] = Hepatic estrogenicity after oral administration; type: in vivo
Source text: After oral administration, estradiol sulfamate is resorbed by the gastrointestinal tract and is taken up into erythrocytes or bonded to erythrocytes. […] The estradiol sulfamate is enriched in the erythrocytes by a multiple (factor: 98:2) of the plasma concentration, whereby a depot of the estradiol sulfamate is produced that makes possible the slow release of the estradiol sulfamate into peripheral tissues and target tissues (see FIG. 2). This makes possible an extension of the dwell time of the estradiol sulfamate in the organism, and the occurrence of very high levels in the plasma is avoided.

erythrocytes [4] = test: Stability of the prodrug and release of the active ingredient in erythrocytes, plasma and tissues; type: in vitro ADME
Source text: If the compounds act as a prodrug, the therapeutically desirable action is obtained by release, especially hydrolytic cleavage, of the active ingredient that is contained in the product and/or its metabolites.

Compound	presence of the 14C-labeled acyl substituent of the sulfamate radical in the blood (erythrocytes [1])	binding to carrier protein in erythrocytes [2]	hepatic estrogenicity [3]	site of release of the active ingredient from the prodrug (erythrocytes [4])	stability of the compound in erythrocytes (erythrocytes [4]; erythrocytes)
17β-hydroxy-estra-1,3,5(10)-trien-3-yl-(N-acetyl)sulfamate [J1045]	no longer present in the-blood	–	–	–	–
C[C@]12CC[C@@H]3c4ccc(OS(N)(=O)=O)cc4CC[C@H]3[C@@H]1CC[C@@H]2O [J995, estradiol sulfamate]	–	binds to the carboanhydrase II (hCA II)	reduced hepatic estrogenicity	only in the plasma or in tissues	stable in the erythrocytes

Reference: patent publication US7507725B2, “Compounds with sulphonamide group and pharmaceutical compositions containing these compounds” (Schering AG, priority 2000, dated 2009)
